The source of these data is patent US20220388953A1, “COMPOUNDS WITH ANTIMICROBIAL ACTIVITY” (The Hong Kong Polytechnic University, priority 2018, published 2022).

Data set [1] deals with β′ CH −σ^A interaction. Briefly: ELISA-based binding assay using σ^A and a GST-tagged β′ subunit fragment (β′-CH). The arrangement: species or system Bacillus subtilis. Particulars: inhibitor compounds used at 500 μM (FIG. 3). As for the experimental part:
FIG. 3 depicts a graph showing assay results of hit compound activity determined by ELISA of the β′ CH −σ^A interaction. Inhibitor compounds C1-C7 were used at 500 μM.

For data set [2], the system named is Streptococcus pneumoniae (Klein) Chester (ATCC 49619). The experiment in a line: Antimicrobial assay, broth microdilution (CLSI), MIC. It counts as cell-based. As for the experimental part:
C3 derivatives were synthesized and antimicrobial activity measured against Streptococcus pneumoniae (MIC, minimum inhibitory concentration).
Bacterial Strains was used in this study is Streptococcus pneumoniae (Klein) Chester (ATCC® 49619™)
The antimicrobial activity of the compounds was determined by broth microdilution according to the Clinical & Laboratory Standards Institute (CLSI) guidelines. The test medium was cation-adjusted Mueller-Hinton broth (MH). Serial two-fold dilutions were performed for the tested chemicals starting from 256 μg/mL to 0.5 μg/mL, and the bacterial cell inoculum was adjusted to approximately 5×10^5 CFU/mL. Results were taken after 20 h of incubation at 37° C. The MIC was defined as the lowest concentration of antibiotic with no visible growth. Experiments were performed in duplicates.

The mark [3] stands for this setting: ATCC49619, Table 1, Streptococcus pneumoniae ATCC 49619, 20 h at 37° C., read-out: MIC.
The mark [4] stands for this setting: Streptococcus pneumoniae, ATCC49619, 20 h.

Values after ≈ are worked out from the molar mass of the structure shown. Like-named read-outs stand apart in the source and are kept apart here.

On to `Nc1ccccc1Sc1ccc(C(=O)c2ccccc2C(=O)O)cc1[N+](=O)[O-]` [C3-1, 2-(4-((2-Aminophenyl)thio)-3-nitrobenzoyl)benzoic Acid], for which, in data set [1], the “inhibitory activity against the binding of σ^A and β′ fragments” value is reported as “possessed inhibitory activity”. The compound `O=C(O)c1ccccc1C(=O)c1ccc(Sc2ccccn2)c([N+](=O)[O-])c1` [C3-4, 2-(3-Nitro-4-(pyridin-2-ylthio)benzoyl)benzoic Acid] showed a melting point of 205 to 206 °C. Also, the MIC in data set [2] (setting [3]) is greater than 256 µg/mL. `CC(C)Nc1cccc(Sc2ccc(C(=O)c3ccccc3C(=O)O)cc2[N+](=O)[O-])c1` [C3-7, 2-(4-((3-(Isopropylamino)phenyl)thio)-3-nitrobenzoyl)benzoic Acid] showed a melting point of 130 to 132 °C. Besides, the minimum inhibitory concentration (MIC) in data set [2] (setting [3]) came to 32 µg/mL (≈ 73.3 µM). `CC(=O)Nc1cccc(Sc2ccc(C(=O)c3ccccc3C(=O)O)cc2[N+](=O)[O-])c1` [C3-8, 2-(4-((3-Acetamidophenyl)thio)-3-nitrobenzoyl)benzoic Acid] registered a melting point of 144 to 146 °C. In data set [2] (setting [3]), the MIC was 256 µg/mL (≈ 587 µM). For `O=C(Nc1cccc(Sc2ccc(C(=O)c3ccccc3C(=O)O)cc2[N+](=O)[O-])c1)c1ccccc1` [C3-9, 2-(4-((3-Benzamidophenyl)thio)-3-nitrobenzoyl)benzoic Acid], the melting point was 144 to 145 °C. For the same compound, the MIC in data set [2] (setting [3]) was 32 µg/mL (≈ 64.2 µM).

In turn, `O=C(O)c1ccccc1C(=O)c1ccc(Sc2ccc(Cl)cc2Cl)c([N+](=O)[O-])c1` [C3-11, 2-(4-((2,4-Dichlorophenyl)thio)-3-nitrobenzoyl)benzoic Acid] yielded a melting point of 260 to 262 °C. In data set [2] (setting [4]), this compound had an MIC of 32 µg/mL (≈ 71.4 µM). For `Cc1ccc(Sc2ccc(C(=O)c3ccccc3C(=O)O)cc2[N+](=O)[O-])c(C)c1` [C3-12, 2-(4-((2,4-Dimethylphenyl)thio)-3-nitrobenzoyl)benzoic Acid], the melting point lay in the range of 240 to 242 °C. Moreover, in data set [2] (setting [4]), 32 µg/mL (≈ 78.5 µM) was the least that counted as inhibitory (MIC). For `CCN(CC)C(=O)c1ccc(Sc2ccc(C(=O)c3ccccc3C(=O)O)cc2[N+](=O)[O-])c([N+](=O)[O-])c1` [C3-14, 2-(4-((4-(Diethylcarbamoyl)-2-nitrophenyl)thio)-3-nitrobenzoyl)benzoic Acid], in that order: 129 to 130 °C and 256 µg/mL (≈ 489 µM). Turning to `Cc1cccc([N+](=O)[O-])c1Sc1ccc(C(=O)c2ccccc2C(=O)O)cc1[N+](=O)[O-]` [C3-15, 2-(4-((2-Methyl-6-nitrophenyl)thio)-3-nitrobenzoyl)benzoic Acid], the melting point is 269 to 271 °C. The compound also returned an MIC in data set [2] (setting [4]) of 128 µg/mL (≈ 292 µM).

`Cc1occc1Sc1ccc(C(=O)c2ccccc2C(=O)O)cc1[N+](=O)[O-]` [C3-16, 2-(4-((2-Methylfuran-3-yl)thio)-3-nitrobenzoyl)benzoic Acid] came in with a melting point of 198 to 199 °C. Besides, the MIC in data set [2] (setting [3]) was 256 µg/mL (≈ 668 µM). Turning to `Nc1ccccc1Nc1ccc(C(=O)c2ccccc2C(=O)O)cc1[N+](=O)[O-]` [C3-17, 2-(4-((2-Aminophenyl)amino)-3-nitrobenzoyl)benzoic Acid], the melting point was 201 to 202 °C. The compound further displayed an MIC in data set [2] (setting [4]) greater than 256 µg/mL. `Cc1cccc(Nc2ccc(C(=O)c3ccccc3C(=O)O)cc2[N+](=O)[O-])c1` [C3-18, 2-(3-Nitro-4-(m-tolylamino)benzoyl)benzoic Acid] showed a melting point of 90 to 92 °C. The minimal inhibitory concentration (MIC) in data set [2] (setting [3]) was determined as 128 µg/mL (≈ 340 µM).

Take `O=C(O)c1ccccc1C(=O)c1ccc(Nc2cccc(CO)c2)c([N+](=O)[O-])c1` [C3-19, 2-(4-((3-(Hydroxymethyl)phenyl)amino)-3-nitrobenzoyl)benzoic Acid]: the melting point is 132 to 134 °C. Further, the MIC in data set [2] (setting [3]) was greater than 256 µg/mL.

In turn, `CC(C)(C)c1cccc(Nc2ccc(C(=O)c3ccccc3C(=O)O)cc2[N+](=O)[O-])c1` [C3-21, 2-(4-((3-(tert-Butyl)phenyl)amino)-3-nitrobenzoyl)benzoic Acid] registered a melting point of 110 to 112 °C. The MIC in data set [2] (setting [3]) worked out at 256 µg/mL (≈ 612 µM).

In turn, `NC(=O)c1cccc(Nc2ccc(C(=O)c3ccccc3C(=O)O)cc2[N+](=O)[O-])c1` [C3-22, 2-(4-((3-Carbamoylphenyl)amino)-3-nitrobenzoyl)benzoic Acid] registered a melting point of 139 to 141 °C. The MIC in data set [2] (setting [3]) is greater than 256 µg/mL.

With `O=C(O)c1ccccc1C(=O)c1ccc(Nc2ccc(Cl)c(Cl)c2)c([N+](=O)[O-])c1` [C3-23, 2-(4-((3,4-Dichlorophenyl)amino)-3-nitrobenzoyl)benzoic Acid], the melting point lay in the range of 115 to 117 °C. Also, the MIC in data set [2] (setting [4]) came out at 64 µg/mL (≈ 148 µM). Turning to `COc1ccc(Nc2ccc(C(=O)c3ccccc3C(=O)O)cc2[N+](=O)[O-])cc1` [C3-24, 2-(4-((4-Methoxyphenyl)amino)-3-nitrobenzoyl)benzoic Acid], the melting point is 225 to 226 °C. The MIC in data set [2] (setting [3]) is greater than 256 µg/mL. In turn, `O=C(O)c1ccccc1C(=O)c1ccc(Nc2ccccc2)c([N+](=O)[O-])c1` [C3-25, 2-(3-Nitro-4-(phenylamino)benzoyl)benzoic Acid] came in with a melting point of 184 to 186 °C. The MIC in data set [2] (setting [4]) was found to be 256 µg/mL (≈ 707 µM). `O=C(O)c1ccccc1C(=O)c1ccc(Nc2cccc3cccnc23)c([N+](=O)[O-])c1` [C3-26, 2-(3-Nitro-4-(quinolin-8-ylamino)benzoyl)benzoic Acid] came in with a melting point of 151 to 153 °C. In data set [2] (setting [3]), the MIC is greater than 256 µg/mL. For `O=C(O)c1ccccc1C(=O)c1ccc(Nc2nccs2)c([N+](=O)[O-])c1` [C3-27, 2-(3-Nitro-4-(thiazol-2-ylamino)benzoyl)benzoic Acid], in that order: 99 to 100 °C and greater than 256 µg/mL. With `O=C(O)c1ccccc1C(=O)c1ccc(NCc2ccccc2)c([N+](=O)[O-])c1` [C3-29, 2-(4-(Benzylamino)-3-nitrobenzoyl)benzoic Acid], the melting point fell in the range of 88 to 90 °C. The MIC in data set [2] (setting [3]) stood at 256 µg/mL (≈ 680 µM).
